Holding throughout (format): cell-based
One assay deals with E. coli ESBL4 CTX-M-15. Kind of assay: Broth microdilution MIC, E. coli ESBL4. Particulars: Escherichia coli, ESBL4CTXM15; fixed ceftazidime 4 μg/mL, CAMHB, 16-20 hours 37° C.; read-out: MIC of exemplary compounds in presence of fixed β-lactams, Fixed CAZ, E. coli ESBL4 CTX-M-15. The gist of the method: (§1)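 MIC of the test compound was read by eye after 16-20 h at 37° C, with inoculation following CLSI broth microdilution. The compound ran 32 to 0.25 μg/ml final in 2-fold steps in cation-adjusted Mueller Hinton broth, overlaid with a beta-lactam held static at 4 μg/ml final.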

Another assay has as its system E. cl 144200 p99 AmpC. The assay can be described thus: Broth microdilution MIC, E. cloacae 144200. The note with it: Enterobacter cloacae; fixed ceftazidime 4 μg/mL, CAMHB, 16-20 hours 37° C.; read-out: MIC of exemplary compounds in presence of fixed β-lactams, Fixed CAZ, E. cl 144200 p99 AmpC. The gist of the method: as §1
(In general: Dilution methods test growth across graded concentrations, often in twofold steps.)

For the next assay, the system named is S. aureus MSSA-7 PC-1. The assay can be described thus: Broth microdilution MIC, S. aureus MSSA-7. The note with it: Staphylococcus aureus, fixed piperacillin 4 μg/mL, CAMHB, 16-20 hours 37° C., read-out: MIC of exemplary compounds in presence of fixed β-lactams, Fixed Pip, S. aureus MSSA-7 PC-1.
Another assay relates to K.P. 156319 KPC-3. Kind of assay: Broth microdilution MIC, K. pneumoniae 156319. Particulars: Klebsiella pneumoniae; fixed meropenem 4 μg/mL, CAMHB, 16-20 hours 37° C.; read-out: MIC of exemplary compounds in presence of fixed β-lactams, Fixed Mero, K.P. 156319 KPC-3.
Another assay concerns P. aerug. Ps296 VIM-2. Kind of assay: Broth microdilution MIC, P. aeruginosa Ps296. Particulars: Pseudomonas aeruginosa; fixed meropenem 4 μg/mL, CAMHB, 16-20 hours 37° C.; read-out: MIC of exemplary compounds in presence of fixed β-lactams, Fixed Mero, P. aerug. Ps296 VIM-2. The gist of the method: as §1
For a further assay, the system named is K.P. A-1797 KPC-2 VIM-4. The assay can be described thus: Broth microdilution MIC, K. pneumoniae A-1797. The note with it: Klebsiella pneumoniae; fixed meropenem 4 μg/mL, CAMHB, 16-20 hours 37° C.; read-out: MIC of exemplary compounds in presence of fixed β-lactams, Fixed Mero, K.P. A-1797 KPC-2 VIM-4.

By MIC is commonly meant the least concentration at which growth counts as inhibited. Take `NCCN[C@H]1CC[C@@H](CC(=O)N[C@H]2Cc3cccc(C(=O)O)c3OB2O)CC1` [Example 46, (R)-3-(2-(cis-4-(2-aminoethylamino)cyclohexyl)acetamido)-2-hydroxy-3,4-dihydro-2H-benzo[e][1,2]oxaborinine-8-carboxylic acid]: the minimum inhibitory concentration (MIC) in the assay on E. coli ESBL4 CTX-M-15, in the assay on E. cl 144200 p99 AmpC, in the assay with S. aureus MSSA-7 PC-1, in the assay with K.P. 156319 KPC-3, in the assay with P. aerug. Ps296 VIM-2 and with K.P. A-1797 KPC-2 VIM-4 was < 4 µg/mL each time.
With `O=C(C[C@H]1CC[C@H](NCCNc2ccccn2)CC1)N[C@H]1Cc2cccc(C(=O)O)c2OB1O` [Example 48, (R)-2-hydroxy-3-(2-(trans-4-(2-(pyridin-2-ylamino)ethylamino)cyclohexyl)acetamido)-3,4-dihydro-2H-benzo[e][1,2]oxaborinine-8-carboxylic acid], the MIC was < 4 µg/mL with E. coli ESBL4 CTX-M-15; < 4 µg/mL in the assay on E. cl 144200 p99 AmpC; < 4 µg/mL in the assay with S. aureus MSSA-7 PC-1; < 4 µg/mL with K.P. 156319 KPC-3; 8 to 32 µg/mL in the assay with P. aerug. Ps296 VIM-2; 8 to 32 µg/mL in the assay on K.P. A-1797 KPC-2 VIM-4.
With `CS(=O)(=O)NCCN[C@H]1CC[C@H](CC(=O)N[C@H]2Cc3cccc(C(=O)O)c3OB2O)CC1` [Example 49, (R)-2-hydroxy-3-(2-(trans-4-(2-(methylsulfonamido)ethylamino)cyclohexyl)acetamido)-3,4-dihydro-2H-benzo[e][1,2]oxaborinine-8-carboxylic acid], the MIC with E. coli ESBL4 CTX-M-15 was < 4 µg/mL; in the assay with E. cl 144200 p99 AmpC, < 4 µg/mL; in the assay on S. aureus MSSA-7 PC-1 it was < 4 µg/mL; in the assay on K.P. 156319 KPC-3 it was < 4 µg/mL; with P. aerug. Ps296 VIM-2, 8 to 32 µg/mL; in the assay on K.P. A-1797 KPC-2 VIM-4 it was 8 to 32 µg/mL.
Consider `NCCN[C@H]1CC[C@H](CC(=O)N[C@@H]2Cc3cccc(C(=O)O)c3OB2O)CC1` [Example 50, (S)-3-(2-(trans-4-(2-aminoethylamino)cyclohexyl)acetamido)-2-hydroxy-3,4-dihydro-2H-benzo[e][1,2]oxaborinine-8-carboxylic acid], for which the MIC in the assay on E. coli ESBL4 CTX-M-15 was < 4 µg/mL; in the assay on E. cl 144200 p99 AmpC, < 4 µg/mL; in the assay with S. aureus MSSA-7 PC-1, < 4 µg/mL; in the assay on K.P. 156319 KPC-3, > 32 µg/mL; in the assay with P. aerug. Ps296 VIM-2, < 4 µg/mL; in the assay on K.P. A-1797 KPC-2 VIM-4, 8 to 32 µg/mL.
With `CNCCN[C@H]1CC[C@H](CC(=O)N[C@H]2Cc3cccc(C(=O)O)c3OB2O)CC1` [Example 51, (R)-2-hydroxy-3-(2-(trans-4-(2-(methylamino)ethylamino)cyclohexyl)acetamido)-3,4-dihydro-2H-benzol[e][1,2]oxaborinine-8-carboxylic acid], the MIC with E. coli ESBL4 CTX-M-15, in the assay with E. cl 144200 p99 AmpC, in the assay with S. aureus MSSA-7 PC-1, with K.P. 156319 KPC-3, in the assay on P. aerug. Ps296 VIM-2 and in the assay with K.P. A-1797 KPC-2 VIM-4 was < 4 µg/mL throughout.
Regarding `CN1CCN([C@H]2CC[C@H](CC(=O)N[C@H]3Cc4cccc(C(=O)O)c4OB3O)CC2)C1=N` [Example 52, (R)-2-hydroxy-3-(2-(trans-4-(2-imino-3-methylimidazolidin-1-yl)cyclohexyl)acetamido)-3,4-dihydro-2H-benzo[e][1,2]oxaborinine-8-carboxylic acid], the MIC in the assay with E. coli ESBL4 CTX-M-15 was < 4 µg/mL; in the assay on E. cl 144200 p99 AmpC, < 4 µg/mL; in the assay with S. aureus MSSA-7 PC-1 it was < 4 µg/mL; with K.P. 156319 KPC-3, 8 to 32 µg/mL; in the assay with P. aerug. Ps296 VIM-2, > 32 µg/mL; with K.P. A-1797 KPC-2 VIM-4, > 32 µg/mL.
Consider `C[C@H](N)CN[C@H]1CC[C@H](CC(=O)N[C@H]2Cc3cccc(C(=O)O)c3OB2O)CC1` [Example 53, (R)-3-(2-(trans-4-((S)-2-aminopropylamino)cyclohexyl)acetamido)-2-hydroxy-3,4-dihydro-2H-benzo[e][1,2]oxaborinine-8-carboxylic acid], for which the minimal inhibitory concentration (MIC) in the assay on E. coli ESBL4 CTX-M-15, in the assay with E. cl 144200 p99 AmpC, in the assay on S. aureus MSSA-7 PC-1, with K.P. 156319 KPC-3, in the assay with P. aerug. Ps296 VIM-2 and with K.P. A-1797 KPC-2 VIM-4 was < 4 µg/mL in each case.
Consider `COC(=O)NCCN[C@H]1CC[C@H](CC(=O)N[C@H]2Cc3cccc(C(=O)O)c3OB2O)CC1` [Example 54, (R)-2-hydroxy-3-(2-(trans-4-(2-(methoxycarbonylamino)ethylamino)cyclohexyl)acetamido)-3,4-dihydro-2H-benzo[e][1,2]oxaborinine-8-carboxylic acid], for which the MIC in the assay on E. coli ESBL4 CTX-M-15 is < 4 µg/mL; with E. cl 144200 p99 AmpC it was < 4 µg/mL; in the assay with S. aureus MSSA-7 PC-1 it was < 4 µg/mL; in the assay on K.P. 156319 KPC-3, < 4 µg/mL; with P. aerug. Ps296 VIM-2 it was < 4 µg/mL; in the assay with K.P. A-1797 KPC-2 VIM-4, 8 to 32 µg/mL.
As to `NCCNC1CC(CC(=O)N[C@H]2Cc3cccc(C(=O)O)c3OB2O)C1` (stereo partly drawn) [Example 55, (R)-3-(2-(3-(2-aminoethylamino)cyclobutyl)acetamido)-2-hydroxy-3,4-dihydro-2H-benzo[e][1,2]oxaborinine-8-carboxylic acid], the MIC with E. coli ESBL4 CTX-M-15, in the assay with E. cl 144200 p99 AmpC, with S. aureus MSSA-7 PC-1, in the assay with K.P. 156319 KPC-3, in the assay with P. aerug. Ps296 VIM-2 and in the assay with K.P. A-1797 KPC-2 VIM-4 was < 4 µg/mL in each case.
Consider `NC1CC(CC(=O)N[C@H]2Cc3cccc(C(=O)O)c3OB2O)C1` (stereo partly drawn) [Example 56, (R)-3-(2-(3-aminocyclobutyl)acetamido)-2-hydroxy-3,4-dihydro-2H-benzo[e][1,2]oxaborinine-8-carboxylic acid], for which the MIC in the assay on E. coli ESBL4 CTX-M-15, in the assay with E. cl 144200 p99 AmpC, in the assay with S. aureus MSSA-7 PC-1, in the assay with K.P. 156319 KPC-3, in the assay with P. aerug. Ps296 VIM-2 and in the assay with K.P. A-1797 KPC-2 VIM-4 was < 4 µg/mL throughout.
For `NCCNC(=O)NCCN(C(=O)NCCN)C1CC(CC(=O)N[C@H]2Cc3cccc(C(=O)O)c3OB2O)C1` (stereo partly drawn) [Example 57, (R)-3-(2-(3-(3-(2-aminoethyl)-1-(2-(3-(2-aminoethyl)ureido)ethyl)ureido)cyclobutyl)acetamido)-2-hydroxy-3,4-dihydro-2H-benzo[e][1,2]oxaborinine-8-carboxylic acid], the minimal inhibitory concentration (MIC) in the assay on E. coli ESBL4 CTX-M-15 was < 4 µg/mL; in the assay on E. cl 144200 p99 AmpC, < 4 µg/mL; in the assay with S. aureus MSSA-7 PC-1, < 4 µg/mL; with K.P. 156319 KPC-3 it was < 4 µg/mL; in the assay on P. aerug. Ps296 VIM-2 it was < 4 µg/mL; with K.P. A-1797 KPC-2 VIM-4, 8 to 32 µg/mL.
For `NCCNC(=O)NC1CC(CC(=O)N[C@H]2Cc3cccc(C(=O)O)c3OB2O)C1` (stereo partly drawn) [Example 58, (R)-3-(2-(3-(3-(2-aminoethyl)ureido)cyclobutyl)acetamido)-2-hydroxy-3,4-dihydro-2H-benzo[e][1,2]oxaborinine-8-carboxylic acid], the MIC with E. coli ESBL4 CTX-M-15, in the assay with E. cl 144200 p99 AmpC, in the assay on S. aureus MSSA-7 PC-1, in the assay with K.P. 156319 KPC-3, in the assay with P. aerug. Ps296 VIM-2 and in the assay on K.P. A-1797 KPC-2 VIM-4 was < 4 µg/mL each time.
Regarding `NCCNC(=O)N[C@H]1CC[C@H](CC(=O)N[C@H]2Cc3cccc(C(=O)O)c3OB2O)CC1` [Example 59, (R)-3-(2-(trans-4-(3-(2-aminoethyl)ureido)cyclohexyl)acetamido)-2-hydroxy-3,4-dihydro-2H-benzo[e][1,2]oxaborinine-8-carboxylic acid], the MIC was < 4 µg/mL in the assay on E. coli ESBL4 CTX-M-15; < 4 µg/mL in the assay with E. cl 144200 p99 AmpC; < 4 µg/mL with S. aureus MSSA-7 PC-1; < 4 µg/mL with K.P. 156319 KPC-3; < 4 µg/mL in the assay on P. aerug. Ps296 VIM-2; 8 to 32 µg/mL in the assay on K.P. A-1797 KPC-2 VIM-4.
With `NCCCN[C@H]1CC[C@H](CC(=O)N[C@H]2Cc3cccc(C(=O)O)c3OB2O)CC1` [Example 60, (R)-3-(2-(trans-4-(3-aminopropylamino)cyclohexyl)acetamido)-2-hydroxy-3,4-dihydro-2H-benzo[e][1,2]oxaborinine-8-carboxylic acid], the MIC in the assay with E. coli ESBL4 CTX-M-15, with E. cl 144200 p99 AmpC, with S. aureus MSSA-7 PC-1, in the assay on K.P. 156319 KPC-3, in the assay on P. aerug. Ps296 VIM-2 and with K.P. A-1797 KPC-2 VIM-4 was < 4 µg/mL in each case.
For the molecule `O=C(C[C@H]1CC[C@H](NCCNCCO)CC1)N[C@H]1Cc2cccc(C(=O)O)c2OB1O` [Example 61, (R)-2-hydroxy-3-(2-(trans-4-(2-(2-hydroxyethylamino)ethylamino)cyclohexyl)acetamido)-3,4-dihydro-2H-benzo[e][1,2]oxaborinine-8-carboxylic acid], the MIC in the assay with E. coli ESBL4 CTX-M-15, in the assay with E. cl 144200 p99 AmpC, in the assay with S. aureus MSSA-7 PC-1, in the assay with K.P. 156319 KPC-3, with P. aerug. Ps296 VIM-2 and with K.P. A-1797 KPC-2 VIM-4 was < 4 µg/mL throughout.
As to `C[C@H](N)CNCCN[C@H]1CC[C@H](CC(=O)N[C@H]2Cc3cccc(C(=O)O)c3OB2O)CC1` [Example 62, (R)-3-(2-(trans-4-(2-((S)-2-aminopropylamino)ethylamino)cyclohexyl)acetamido)-2-hydroxy-3,4-dihydro-2H-benzo[e][1,2]oxaborinine-8-carboxylic acid], the MIC in the assay with E. coli ESBL4 CTX-M-15 was < 4 µg/mL; in the assay with E. cl 144200 p99 AmpC, < 4 µg/mL; with S. aureus MSSA-7 PC-1 it was < 4 µg/mL; in the assay with K.P. 156319 KPC-3 it was < 4 µg/mL; with P. aerug. Ps296 VIM-2 it was 8 to 32 µg/mL; in the assay on K.P. A-1797 KPC-2 VIM-4, < 4 µg/mL.

(Values after patent US10669290B2, “Beta-lactamase inhibitors” (priority 2012, dated 2020).)
